Results taken from ChEMBL document CHEMBL1127137, “3-phosphono-1-carba-1-dethiacephalosporins as antibacterial agents” (1993).
Converted amounts (≈) assume the structure as drawn.

What was measured:
Assay type in all cases: functional
Escherichia coli = assay: Antimicrobial activity against gram negative Escherichia coli (EC14) was determined
Staphylococcus aureus [1] = assay: Antimicrobial activity against gram positive Staphylococcus aureus (V41) was determined
Staphylococcus aureus [2] = assay: Antimicrobial activity against gram positive Staphylococcus aureus (X1.1) was determined
Streptococcus pneumoniae = assay: Antimicrobial activity against gram positive Streptococcus pneumoniae (PARK) was determined
[3] = test system: Staphylococcus epidermidis; assay: Antimicrobial activity against gram positive Staphylococcus epidermidis (222) was determined

Compound | MIC (Escherichia coli) | MIC (Staphylococcus aureus [1]) | MIC (Staphylococcus aureus [2]) | MIC (Streptococcus pneumoniae) | MIC [3]
O=C(COc1ccccc1)N[C@@H]1C(=O)N2C(C(=O)O)=C(OP(=O)(O)O)CC[C@H]12 | > 128 µg/mL | > 128 µg/mL | 64 µg/mL (≈ 155 µM) | > 128 µg/mL | > 128 µg/mL
CC1(C)S[C@@H]2[C@H](NC(=O)COc3ccccc3)C(=O)N2[C@H]1C(=O)O [PENICILLIN V] | 128 µg/mL (≈ 365 µM) | 16 µg/mL (≈ 45.7 µM) | 0.06 µg/mL (≈ 0.171 µM) | 0.06 µg/mL (≈ 0.171 µM) | 0.125 µg/mL (≈ 0.357 µM)
CCOP(=O)(OCC)OC1=C(C(=O)[O-])N2C(=O)[C@@H](NC(=O)COc3ccccc3)[C@H]2CC1.[Na+] | 64 µg/mL | 2 µg/mL | 0.25 µg/mL | 0.25 µg/mL | 1 µg/mL
N[C@@H](C(=O)N[C@@H]1C(=O)N2C(C(=O)O)=C(Cl)CC[C@H]12)c1ccccc1 [LORACARBEF ANHYDROUS] | 0.05 µg/mL (≈ 0.143 µM) | 4 µg/mL (≈ 11.4 µM) | 2 µg/mL (≈ 5.72 µM) | 1 µg/mL (≈ 2.86 µM) | 2 µg/mL (≈ 5.72 µM)
CCCCOP(=O)(OCCCC)OC1=C(C(=O)[O-])N2C(=O)[C@@H](NC(=O)COc3ccccc3)[C@H]2CC1.[Na+] | > 128 µg/mL | 64 µg/mL | 0.5 µg/mL | 0.03 µg/mL | 1 µg/mL
COP(=O)(OC)OC1=C(C(=O)[O-])N2C(=O)[C@@H](NC(=O)COc3ccccc3)[C@H]2CC1.[Na+] | 64 µg/mL | 2 µg/mL | 0.5 µg/mL | 0.5 µg/mL | 1 µg/mL
